The numbers were not newly measured in patent publication US7056858B2 (Varian, Inc., priority 2002, dated 2006), which cites them from elsewhere.

The conditions of the data set: for π value: dipolarity/dipolarizability descriptor; for Σα value: hydrogen-bond acidity descriptor; for Σβ value: hydrogen-bond basicity descriptor.

Each structure is given as a SMILES string.

As to `CN(C)C=O` [N,N dimethylformamide], the π value was 0.56, the Σα value is reported as 0.00 and the Σβ value is 0.44.
Regarding `CN1CCCC1=O` [N-methylpyrrolidone], the π value is reported as 0.57, the Σα value is on record as 0.00 and the Σβ value was 0.43.
On to `NC=O` [formamide], for which the π value is 0.46, the Σα value was 0.33 and the Σβ value is on record as 0.21.
